Results taken from ChEMBL document CHEMBL1137545, “Antiproliferative activities of a library of hybrids between indanones and HDAC inhibitor SAHA and MS-275 analogues” (Bioorg Med Chem Lett, 2007).
Activity calls are given as the source filed them. The rule behind the calls is not given here.

Key:
[1] = Antiproliferative activity against H661 cells after 48 hrs; type: functional, cell-based; details: Homo sapiens, NCI-H661, 48 h
NCI-H661 = assay: Antiproliferative activity against H661 cells at 25 uM after 48 hrs; type: functional, cell-based; details: Homo sapiens

CC(/C=C/C(=O)NO)=C\[C@@H](C)C(=O)c1ccc(N(C)C)cc1 [TRICHOSTATIN]
IC50 [1]: 0.085 µM

CC1(Cc2nc(C(=O)Nc3ccccc3N)cs2)Cc2ccccc2C1=O (centres undefined)
Activity (NCI-H661): inactive

CC1(Cc2cccc(C(=O)Nc3ccccc3N)c2)Cc2ccccc2C1=O (centres undefined)
Activity (NCI-H661): inactive

CC1(CCCCC(=O)NO)Cc2ccccc2C1=O (centres undefined)
IC50 [1]: > 25 µM

CN(C)c1ccc2c(c1)CC(C)(CCCCC(=O)NO)C2=O (centres undefined)
Activity (NCI-H661): inactive

CC1(Cc2cccc(C(=O)NO)c2)Cc2ccccc2C1=O (centres undefined)
Activity (NCI-H661): inactive

CC1(CCCCCC(=O)NO)Cc2ccccc2C1=O (centres undefined)
Activity (NCI-H661): inactive

CC1(Cc2nc(C(=O)NO)cs2)Cc2ccccc2C1=O (centres undefined)
Activity (NCI-H661): inactive

CC1(CCCCCCC(=O)NO)Cc2ccccc2C1=O (centres undefined)
IC50 [1]: 20 µM
